# Columns and labels:
# Cannabinoid receptor 2 [1] = biological target: T1, Cannabinoid receptor 2 (Homo sapiens, UniProt P34972); assay: Agonist activity at recombinant human CB2 receptor expressed in CHO cells assessed as inhibition of forskolin-induced cAMP accumulation by measuring maximum efficacy preincubated for 15 mins followed by forskolin stimulation and measured after 15 mins by HTRF assay relative to control; type: functional, cell-based; conditions: filed as agonist, time 30.0 min
# [2] = Metabolic stability in human liver microsomes assessed as half life; type: ADME, Microsome
# [3] = Metabolic stability in rat liver microsomes assessed as half life; type: ADME, Microsome
# [4] = Metabolic stability in mouse liver microsomes assessed as half life; type: ADME, Microsome
# [5] = Metabolic stability in human liver microsomes assessed as intrinsic clearance; type: ADME, Microsome; conditions: read-out: CLH
# [6] = Metabolic stability in rat liver microsomes assessed as intrinsic clearance; type: ADME, Microsome; conditions: read-out: CLH
# [7] = Metabolic stability in mouse liver microsomes assessed as intrinsic clearance; type: ADME, Microsome; conditions: read-out: CLH
# Cannabinoid receptor 1 [8] = biological target: T2, Cannabinoid receptor 1 (Homo sapiens, UniProt P21554); assay: Displacement of [3H]-CP55940 from recombinant human CB1 receptor expressed in CHO cells assessed as inhibition constant incubated for 120 mins by radioligand binding assay; type: cell-based
# T2 sequence (P21554 whole entry): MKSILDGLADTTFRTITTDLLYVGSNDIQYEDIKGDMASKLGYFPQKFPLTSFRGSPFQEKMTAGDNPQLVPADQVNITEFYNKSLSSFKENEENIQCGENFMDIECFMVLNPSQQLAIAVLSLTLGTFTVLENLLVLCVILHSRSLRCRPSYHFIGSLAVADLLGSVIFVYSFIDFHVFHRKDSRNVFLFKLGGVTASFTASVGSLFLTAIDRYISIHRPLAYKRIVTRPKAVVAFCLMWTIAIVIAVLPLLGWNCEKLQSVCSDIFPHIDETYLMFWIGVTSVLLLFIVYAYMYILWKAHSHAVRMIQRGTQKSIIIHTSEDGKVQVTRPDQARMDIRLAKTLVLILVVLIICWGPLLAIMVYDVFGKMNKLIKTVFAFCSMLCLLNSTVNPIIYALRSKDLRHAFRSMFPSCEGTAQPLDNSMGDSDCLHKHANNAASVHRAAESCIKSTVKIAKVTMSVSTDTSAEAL
# Cannabinoid receptor 2 [9] = biological target: T1, Cannabinoid receptor 2; assay: Displacement of [3H]-CP55940 from recombinant human CB2 receptor expressed in CHO cells assessed as inhibition constant incubated for 120 mins by radioligand binding assay; type: cell-based
# Cannabinoid receptor 1 [10] = biological target: T2, Cannabinoid receptor 1; assay: Agonist activity at recombinant human CB1 receptor expressed in CHO cells assessed as inhibition of forskolin-induced cAMP accumulation preincubated for 15 mins followed by forskolin stimulation and measured after 15 mins by HTRF assay; type: functional, cell-based
# Cannabinoid receptor 2 [11] = biological target: T1, Cannabinoid receptor 2; assay: Agonist activity at recombinant human CB2 receptor expressed in CHO cells assessed as inhibition of forskolin-induced cAMP accumulation preincubated for 15 mins followed by forskolin stimulation and measured after 15 mins by HTRF assay; type: functional, cell-based
# Cannabinoid receptor 1 [12] = biological target: T2, Cannabinoid receptor 1; assay: Agonist activity at recombinant human CB1 receptor expressed in CHO cells assessed as inhibition of forskolin-induced cAMP accumulation by measuring maximum efficacy preincubated for 15 mins followed by forskolin stimulation and measured after 15 mins by HTRF assay relative to control; type: functional, cell-based; conditions: filed as agonist, time 30.0 min
# T1 sequence (P34972 whole entry): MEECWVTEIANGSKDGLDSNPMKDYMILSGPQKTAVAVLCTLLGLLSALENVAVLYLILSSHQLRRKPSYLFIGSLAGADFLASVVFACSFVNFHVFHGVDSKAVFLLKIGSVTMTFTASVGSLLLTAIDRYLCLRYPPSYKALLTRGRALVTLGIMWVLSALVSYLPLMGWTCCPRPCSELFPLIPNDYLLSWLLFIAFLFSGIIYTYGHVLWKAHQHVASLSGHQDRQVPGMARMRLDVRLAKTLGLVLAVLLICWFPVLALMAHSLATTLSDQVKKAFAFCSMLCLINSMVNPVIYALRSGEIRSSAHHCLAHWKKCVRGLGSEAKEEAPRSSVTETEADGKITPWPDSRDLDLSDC
Compound,Emax (Cannabinoid receptor 2 [1]),half-life [2],half-life [3],half-life [4],CLint scaled [5],CLint scaled [6],CLint scaled [7],Ki (Cannabinoid receptor 1 [8]),Ki (Cannabinoid receptor 2 [9]),EC50 (Cannabinoid receptor 1 [10]),EC50 (Cannabinoid receptor 2 [11]),Emax (Cannabinoid receptor 1 [12])
CCCCCCC(C)(C)c1cc(OC)c([C@H]2C=C(CO)[C@H]3C[C@@H]2C3(C)C)c(OC)c1,101%,20.4 min,18.2 min,7.84 min,85.4 mL/min/kg,137 mL/min/kg,696 mL/min/kg,,,,,
C=C(C)[C@@H]1CCC(C)=C[C@H]1c1c(O)cc([Si](C)(C)CCCC)cc1O,82.7%,,,,,,,15 nM,7.25 nM,403 nM,190 nM,94.6%
CCCCCC[Si](C)(C)c1cc(O)c(C2CCCCCC2)c(O)c1,92%,,,,,,,17.7 nM,6.53 nM,129 nM,165 nM,98%
CCCC[Si](C)(C)c1cc(O)c(C2CCCC2)c(OC)c1,85.4%,,,,,,,600 nM,903 nM,,1000 nM,
CCCCCC[Si](C)(C)c1cc(O)c(C2CCCCCC2)c(OC)c1,98.7%,,,,,,,182 nM,67.2 nM,3120 nM,82.7 nM,67.8%
CCCC[Si](C)(C)c1cc(O)c2c(c1)OC(C)(C)[C@@H]1CC=C(CO)C[C@@H]21,91.2%,,,,,,,2.28 nM,0.65 nM,35.2 nM,8340 nM,102%
CC[Si](C)(C)c1cc(O)c2c(c1)OC(C)(C)[C@@H]1CCC(C)=C[C@@H]21,84.8%,,,,,,,19.3 nM,1070 nM,,352 nM,
C=C(C)[C@@H]1CCC(C)=C[C@H]1c1c(O)cc(CCCCC)cc1O [CANNABIDIOL],,4.46 min,1.44 min,1.11 min,390 mL/min/kg,4900 mL/min/kg,1720 mL/min/kg,,,,,
CCCC[Si](C)(C)c1cc(OC)c([C@H]2C=C(CO)[C@H]3C[C@@H]2C3(C)C)c(OC)c1,83.6%,,,,,,,454 nM,227 nM,,899 nM,
CCCC[Si](C)(C)c1cc(O)c(C2CCCCC2)c(OC)c1,90.4%,,,,,,,671 nM,396 nM,,707 nM,
CCCCCC[Si](C)(C)c1cc(O)c2c(c1)OC(C)(C)[C@@H]1CCC(C)=C[C@@H]21,90.2%,,,,,,,0.8 nM,7.41 nM,5.94 nM,20.2 nM,99.2%
CCCC[Si](C)(C)c1cc(O)c2c(c1)OC(C)(C)[C@@H]1CCC(C)=C[C@@H]21,95.4%,,,,,,,2.33 nM,1.48 nM,13.9 nM,65.1 nM,99.6%
CCCCCC[Si](C)(C)c1cc(O)c2c(c1)OC(C)(C)[C@@H]1CC=C(CO)C[C@@H]21,,,,,,,,0.43 nM,0.97 nM,6.58 nM,61.3 nM,105%

# Reference: ChEMBL document CHEMBL5096202, “Carbon-silicon switch led to the discovery of novel synthetic cannabinoids with therapeutic effects in a mouse model of multiple sclerosis” (Eur J Med Chem, 2021)
